Molecular target: T1, Histamin-H2-Rezeptoren (Cavia porcellus, UniProt P47747)
T1 construct: Kontraktionsfrequenz des isolierten rechten Atriums des Meerschweinchens; from tissue; host or cells: isolated guinea pig (right) atrium
Test: pA2 determination in vitro on guinea pig atrium (method of Ariens)
Type: biochemical, Meerschweinchen
Conditions: Meerschweinchenvorhof, H2-antagonistic activity, Molec. Pharmac., Band 1 (1964)
Text: Die pharmakologische Aktivität dieser Verbindungen kann nach einer modifizierten Methode gemäß der DE OS 2734070 beim perfundierten Rattenmagen gezeigt werden oder durch die Ermittlung der pA2-Werte in vitro am Meerschweinchenvorhof (vergleiche Ariens, Molec. Pharmac., Band 1, Academic Press, New York, 1964) nachgewiesen werden.

T1 sequence (P47747 whole entry): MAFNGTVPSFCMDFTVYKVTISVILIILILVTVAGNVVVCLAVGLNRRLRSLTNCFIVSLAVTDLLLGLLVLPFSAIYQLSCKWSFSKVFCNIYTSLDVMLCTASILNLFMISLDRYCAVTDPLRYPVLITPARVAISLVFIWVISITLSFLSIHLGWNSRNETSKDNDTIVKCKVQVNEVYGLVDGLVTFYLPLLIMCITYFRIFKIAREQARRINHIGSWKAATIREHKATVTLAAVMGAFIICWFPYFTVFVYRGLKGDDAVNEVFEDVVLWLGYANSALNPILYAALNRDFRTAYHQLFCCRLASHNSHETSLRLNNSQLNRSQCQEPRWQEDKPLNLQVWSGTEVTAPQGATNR

Kb: 31.6 nM
Structure (SMILES): CNC(=C[N+](=O)[O-])NCC=CCOc1cccc(CN2CCCCC2)c1 [Beispiel 4, 1-Methylamino-1-[4-[3-(piperidinomethyl)phenoxy]but-2-enyl] amino-2-nitro-ethylen]
